Data on 2 compounds can be found in patent US4956344A, “Method for treatment of lesions in the large intestinal epithelium with a tripeptide” (Hafslund Nycomed A/S, priority 1989, dated 1990).

“And” between values parts separate entries of the source, which are not always exact repeats. Equal values may be shown once. Square brackets hold non-standard residues; d marks the D form. Peptide text beside a SMILES is read from it. pGlu = O=C1CC[C@@H](C(=O)O)N1

In assay [1] the test system is large intestinal epithelium. Description: Mitotic rate (Colcemid-arrested metaphases) in the large intestinal epithelium after i.p. injection. In kind it is in vivo, hairless mice. The arrangement: mitotic rate in the large intestinal epithelium, Treated group Mean / Mitotic rate, Treated: unit not given here. To be noted: for cell proliferation in the large intestinal epithelium (mitotic rate), Treated: mean. Here is the method: (§1) All in vivo experiments were performed with hairless mice at 0800-0900 AM. The fractions were suspended in distilled water, slightly acidified (pH=6) and injected i.p. at different doses dependent on the purity of the fraction. The controls received solvent only. The pattern of cell proliferation after injecting the peptide was examined by varying the time between treatment and sacrifice.
Two hours before sacrifice (except for the experiments testing tissue specificity in the kidney) all animals received Colcemid 0.15 mg per animal i.p. ^3 HTdR (tritiated thymidine) was injected 30 minutes before sacrifice (30 μCi per animal i.p.). […]
Mitotic rate: After routine dehydration and paraffin embedding, sections were cut at 5 μm and stained with haematoxylin. Colcemid-arrested mitoses per 500 crypt cells were determined in ten longitudinally cut crypts in ileum and colon. Only crypts that were cut strictly longitudinally were accepted, viz., only those where the lumen of the crypt could be followed from the bottom of the gland to the lumen of the gut. No telophases were seen. The number of accumulated metaphases in epidermis Was determined by counting 25 vision fields of interfollicular epidermis (eyepiece 12.5, objective 40) and expressed as mitoses per vision field per 2h.

The test system of assay [2] is large intestinal epithelium. Description: Labelling index (3HTdR-labelled crypt cells) in the large intestinal epithelium after i.p. injection. The class given is in vivo, hairless mice. The arrangement: key to Labelling index, Treated: fraction of labelled cells per 500 crypt cells. To be noted: for Labelling index, Treated: 10^-12 mole per animal. Here is the method: as §1
(§2) Two hours before sacrifice (except for the experiments testing tissue specificity in the kidney) all animals received Colcemid 0.15 mg per animal i.p. ^3 HTdR (tritiated thymidine) was injected 30 minutes before sacrifice (30 μCi per animal i.p.).
Labelling index: Paraffin sections, cut at 5 μm, were dipped in Kodak-NTB emulsion and exposed for 3 weeks at 0°-4° C., developed, and stained with haematoxylin The number of labelled cells were counted per 500 crypt cells in longitudinally cut crypts as described above. Similarly, the number of labelled cells in 40 vision fields of interfollicular epidermis (eyepiece 12.5, objective 40) was determined. A cell was considered labelled when the number of grains was five or more.

Assay [3] relates to epidermis. As to the kind of experiment: Tissue specificity: mitotic rate in epidermis (back skin). In kind it is in vivo, hairless mice. The conditions noted are these: time and dose levels tested. Here is the method: (§3) To test for possible tissue specificity of the tripeptide the back skin and a defined part of ileum of eight animals were fixed immediately after killing. The mitotic rate (see below) in sections from these tissues was compared with the corresponding values in solvent-treated animals. Unilateral nephrectomy (uNX) was performed in four animals, and the animals were treated with the tripeptide at 18h after surgery. Controls underwent uNX and received solvent only. These animals received Colcemid 3h before sacrifice at 42h. The mitotic rate (number of accumulated metaphases per 1000 cells per 3h) was registered in the outer part of the kidney cortex.
as §2
(§4) Mitotic rate: After routine dehydration and paraffin embedding, sections were cut at 5 μm and stained with haematoxylin. Colcemid-arrested mitoses per 500 crypt cells were determined in ten longitudinally cut crypts in ileum and colon. Only crypts that were cut strictly longitudinally were accepted, viz., only those where the lumen of the crypt could be followed from the bottom of the gland to the lumen of the gut.

Assay [4] concerns small intestine. As to the kind of experiment: Tissue specificity: mitotic rate in small intestine (ileum). In kind it is in vivo, hairless mice. To be noted: time and dose levels tested. Here is the method:
as §3, §2, §4

In assay [5] the test system is kidney tubular epithelium. Description: Tissue specificity: mitotic rate in kidney cortex after unilateral nephrectomy. The conditions noted are these: proliferation induced by contralateral nephrectomy; treated 18h after surgery, sacrifice at 42h. In kind it is in vivo, hairless mice. Here is the method:
as §3

The test system of assay [6] is colon carcinoma cell line HT 29. As to the kind of experiment: Proliferation of HT 29 cells, incorporation of tritiated thymidine. The class given is cell-based. To be noted: for incorporation of 3HTdR, Treated (Mean): 1 % fetal calf serum, 6 hour-period. Here is the method: Cell culture: HT 29 cells, 20000 cells per well in 96-well tissue culture clusters. Medium: RPMI 1640, 1 % fetal calf serum Concentration of the tripeptide 10^-8 M, lyophilized peptide dissolved in medium.
Assay for proliferation: Incorporation of tritiated thymidine (^3 HTdR) 6 hour-period, ^3 HTdR 1 uCi per well.
The tripeptide was added to the culture on the third day (exponential growth), and the incorporation of tritiated thymidine was measured for 6 hour-periods at 16h, 24h, and 40h after the peptide was added to the wells.

Turning to `O=C(O)CC[C@H](NC(=O)[C@@H]1CCC(=O)N1)C(=O)N[C@@H](CC(=O)O)C(=O)N[C@@H](CO)C(=O)NCC(=O)O` [pGlu-Glu-Asp-Ser-Gly (OH), reference compound] ([pGlu]EDSG-OH), in assay [1] (10^-12 mole per animal, doses and times tested), the “cell proliferation in the large intestinal epithelium” value is “unchanged”.
With `O=C(O)CNC(=O)[C@H](Cc1c[nH]cn1)NC(=O)[C@@H]1CCC(=O)N1` [pGlu-His-Gly(OH), L-pyroglutamyl-L-histidyl-glycine] ([pGlu]-His-Gly-OH), the “number of accumulated metaphases” value in assay [1] (2-4h after injection, 10^-12 mole per animal i.p.) is recorded as “significantly reduced”. The “cell proliferation in the large intestinal epithelium (mitotic rate), Treated” value in assay [1] (10^-6 mole per animal i.p.) is reported as 0.047; in assay [1] (10^-9 mole per animal i.p.), 0.044; in assay [1] (10^-11 mole per animal i.p., p<0.05), 0.021; in assay [1] (10^-12 mole per animal i.p., p<0.05), 0.018; in assay [1] (10^-15 mole per animal i.p.), 0.042; in assay [1] (10^-18 mole per animal i.p.), 0.035. In assay [1] (10^-11 mole per animal), the “inhibition of mitotic rate in the large intestinal epithelium” value is “smaller, but significant inhibition”. The “reduction of the number of accumulated metaphases” value in assay [1] (10^-12 mole per animal) is “more than 50%”. In addition, the “mitotic rate in the large intestinal epithelium, Treated group Mean” value in assay [1] (10^-12 mole per animal, synthetic peptide, seven identical experiments in mice, one line each, p<0.05) is 0.018 and 0.021 and 0.026 and 0.043 and 0.025. Also, the “Mitotic rate, Treated” value in assay [1] (2 h after single i.p. injection, 10^-12 mole per animal) turned out to be 0.021; in assay [1] (4 h after single i.p. injection, 10^-12 mole per animal) it was 0.018; in assay [1] (6 h after single i.p. injection, 10^-12 mole per animal) it was 0.027; in assay [1] (8 h after single i.p. injection, 10^-12 mole per animal), 0.031; in assay [1] (12 h after single i.p. injection, 10^-12 mole per animal), 0.019; in assay [1] (15 h after single i.p. injection, 10^-12 mole per animal) it was 0.010. In addition, the “Mitotic rate, Treated” value was 0.027 in assay [1] (18 h after single i.p. injection, 10^-12 mole per animal) and 0.057 in assay [1] (24 h after single i.p. injection, 10^-12 mole per animal). Further, the “mitotic rate, second effect” value in assay [1] (approximately 15h after injection, less pronounced than the first, 10^-12 mole per animal) is on record as “new Wave of inhibition”. In assay [1] (doses higher than 10^-11 or lower than 10^-12 mole per animal), the “decrease in cell proliferation in the large intestinal epithelium” value is “no significant decrease”. In assay [1] (thereafter, for a period of 6-8h, not formally significant, 10^-12 mole per animal), the “mitotic count in the treated group” value is “exceeded the control level”. Also, the “reduced LI, significance” value in assay [2] (15 and 18 h after treatment) is “not statistically significant”. Further, the “Labelling index, Treated” value in assay [2] (2 h after single i.p. injection) is 0.086; in assay [2] (4 h after single i.p. injection), 0.067; in assay [2] (6 h after single i.p. injection), 0.067; in assay [2] (8 h after single i.p. injection), 0.058; in assay [2] (12 h after single i.p. injection), 0.048; in assay [2] (15 h after single i.p. injection), 0.068. Moreover, the “Labelling index, Treated” value in assay [2] (18 h after single i.p. injection) is 0.11; in assay [2] (24 h after single i.p. injection), 0.098. Moreover, the “labelling index (LI)” value in assay [2] (4h after injection) is “pronounced reduction”. Further, the “number of labelled cells, second period” value in assay [2] (approximately 8h after the first decrease) is reported as “second inhibition of the same degree”. The “inhibitory effect on cell proliferation in epidermis” value in assay [3] was “No inhibitory effect”. In addition, the “inhibitory effect on cell proliferation in the small intestine” value in assay [4] is given as “No inhibitory effect”. Moreover, in assay [5], the “inhibitory effect on cell proliferation in kidney tubular epithelium” value is on record as “No inhibitory effect”. The “incorporation of 3HTdR, Treated (Mean)” value in assay [6] (10^-8 M, 16 h after addition of peptide) was 12177; in assay [6] (10^-8 M, 24 h after addition of peptide) it was 9080; in assay [6] (10^-8 M, 40 h after addition of peptide), 12485. For the same compound, in assay [6] (10^-8 M, 24-30h after the treatment, 1 % serum), the “incorporation of 3HTdR” value is “significant reduction”. Further, the “inhibition of 3HTdR incorporation” value in assay [6] (10^-10 M) is “less, but still significant inhibition”. Besides, the “growth of HT 29 cells with increased serum” value in assay [6] (serum addition increased to 10 &) was “varied between significant inhibition of growth and no effect”.
